# Experimental data as given in publication PMC3032545, “A c-di-GMP Effector System Controls Cell Adhesion by Inside-Out Signaling and Surface Protein Cleavage” (PLoS Biology, 2011).
# Target: T1, LapD (c-di-GMP receptor) with LapG (periplasmic protease, read-out) (Pseudomonas fluorescens, UniProt Q3KK31)
# T1 construct: full-length native LapD and LapG in clarified Pf0-1 cell extracts; LapD mutants from plasmid pMQ72 in the lapD deletion strain; with Periplasmic cysteine protease LapG (transglutaminase-like cysteine peptidase, DUF920)
# T1 sequence (Q3KK31 1-648): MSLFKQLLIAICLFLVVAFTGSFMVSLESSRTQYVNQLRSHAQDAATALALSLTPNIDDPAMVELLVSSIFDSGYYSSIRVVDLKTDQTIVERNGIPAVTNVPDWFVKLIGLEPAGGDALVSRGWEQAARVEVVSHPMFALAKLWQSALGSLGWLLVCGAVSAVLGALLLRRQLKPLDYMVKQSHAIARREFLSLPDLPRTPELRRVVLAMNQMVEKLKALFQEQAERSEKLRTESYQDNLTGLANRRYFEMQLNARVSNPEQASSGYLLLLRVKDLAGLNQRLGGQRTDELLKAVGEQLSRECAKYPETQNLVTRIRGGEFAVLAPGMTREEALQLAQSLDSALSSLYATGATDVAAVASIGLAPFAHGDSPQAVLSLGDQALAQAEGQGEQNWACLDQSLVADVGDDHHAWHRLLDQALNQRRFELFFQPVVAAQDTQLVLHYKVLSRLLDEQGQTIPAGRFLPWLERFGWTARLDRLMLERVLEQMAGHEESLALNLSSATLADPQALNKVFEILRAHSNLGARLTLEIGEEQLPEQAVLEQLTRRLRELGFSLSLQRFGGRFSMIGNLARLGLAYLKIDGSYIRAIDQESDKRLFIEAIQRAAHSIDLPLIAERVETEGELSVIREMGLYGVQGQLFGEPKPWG
# T1 sequence (Q3KK32 50-251 partner): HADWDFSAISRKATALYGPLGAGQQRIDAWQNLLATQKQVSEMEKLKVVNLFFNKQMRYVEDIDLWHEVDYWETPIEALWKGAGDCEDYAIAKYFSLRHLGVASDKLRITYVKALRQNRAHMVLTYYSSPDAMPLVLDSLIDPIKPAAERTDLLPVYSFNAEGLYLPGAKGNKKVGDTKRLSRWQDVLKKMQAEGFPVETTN
# Assay: inhibition of LapG cleavage of N-Term-LapA in cell extract, anti-His Western blot densitometry
# Assay type: biochemical
# Conditions: LapD-dependent: c-di-GMP binds LapD EAL domain, not LapG; wild-type Pf0-1 extract; 30 pmol N-Term-LapA, 100 min, room temperature
smiles,measurement,value
Nc1nc2c(ncn2[C@@H]2O[C@@H]3CO[P@](=O)(O)O[C@H]4[C@@H](O)[C@H](n5cnc6c(=O)[nH]c(N)nc65)O[C@@H]4CO[P@](=O)(O)O[C@H]3[C@H]2O)c(=O)[nH]1 [c-di-GMP],IC50,2300 ± 1100 nM
